Key:
[1] = Randomized, crossover, fed/fasted single-dose pharmacokinetics study of oral sustained release tablets of compound (3); assay type: in vivo, human; details: tablets 2×600 mg oral
Procedure: A randomized, crossover, fed/fasted single-dose study of the safety, tolerability, and pharmacokinetics of oral administration of 1-{[(α-isobutanoyloxyethoxy)carbonyl]aminomethyl}-1-cyclohexane acetic acid (3) in healthy adult subjects was conducted. The oral sustained release dosage form of Example 6 was used in this study. The study was designed to evaluate the performance of this formulation in humans in comparison with the commercial gabapentin capsule formulation (Neurontin®, Pfizer). Twelve healthy adult volunteers (7 males and 5 females) participated in the study. Mean body weight was 75.6 kg. All subjects received two different treatments in a random order with a one-week washout between treatments.
Blood and plasma samples were collected from all subjects prior to dosing, and at 0.5, 1, 1.5, 2, 3, 4, 6, 8, 12, 18, 24, and 36 hours after dosing. Urine samples were collected from all subjects prior to dosing, and complete urine output was obtained at the 0-4 h, 4-8 h, 8-12 h, 12-18 h, 18-24 h, and 24-36 h intervals after dosing. Blood samples were quenched immediately with methanol and stored frozen at <70° C. Sample aliquots were prepared for analysis of gabapentin and compound (3) using sensitive and specific LC/MS/MS methods.

[2] = tested on: acoustic trauma-induced tinnitus; details: animals; Bauer and Brozoski 2001; cited from earlier work
[3] = cited from earlier work
tinnitus = details: doses up to 2,400 mg/day; Bauer and Brozoski 2006; cited from earlier work

Structure (SMILES)	AUC of compound (3) in blood as percent of corresponding AUC of gabapentin in blood ([1]; fasted) [%]	Maximum concentration of intact compound (3) as percent of corresponding peak gabapentin concentration ([1]; fasted)	Maximum concentration of intact compound (3) in blood ([1]; fasted) [µg/mL]	AUC of compound (3) in blood as percent of corresponding AUC of gabapentin in blood ([1]; fed)	Maximum concentration of intact compound (3) as percent of corresponding peak gabapentin concentration ([1]; fed)	Maximum concentration of intact compound (3) in blood ([1]; fed) [µg/mL]	Attenuation of acoustic trauma-induced tinnitus [2]	Typical Tmax of immediate release gabapentin [3] [h]	Efficacy in treating tinnitus (tinnitus)
CC(OC(=O)NCC1(CC(=O)O)CCCCC1)OC(=O)C(C)C (stereo not drawn) [compound (3), 1-{[(α-Isobutanoyloxyethoxy)carbonyl]aminomethyl}-1-Cyclohexane Acetic Acid]	0.3	approximately 1.0%	0.040	less than 0.1%	approximately 0.3%	0.018			
NCC1(CC(=O)O)CCCCC1 [gabapentin]							effective in reversibly attenuating acoustic trauma-induced tinnitus in animals	2 to 4	effective in treating tinnitus

From US20080188562A1, “TREATING […] USING PRODRUGS OF […] PREGABALIN” (priority 2006, published 2008)
